Test: in vitro dissolution test (concentration enhancement) in PBS, microcentrifuge method
Assay type: physicochemical
Details: PBS pH 6.5, 37° C.
Experimental: For this test, samples containing 7.2 mg of Example 1 were added to microcentrifuge tubes, in duplicate. The tubes were placed in a 37° C. temperature-controlled chamber, and 1.8 mL PBS at pH 6.5 and 290 mOsm/kg was added. The samples were quickly mixed using a vortex mixer for about 60 seconds. The samples were centrifuged at 13,000 G at 37° C. for 1 minute. […] The contents of the tubes were mixed on the vortex mixer and allowed to stand undisturbed at 37° C. until the next sample was taken. […] Control 1 and crystalline Drug 1 were tested using the same procedure. The concentration of drug obtained in these samples were used to determine the values of the maximum concentration of drug in the first ninety minutes (Cmax90) and the area under the curve of drug concentration versus time in the first ninety minutes (AUC90). […] The physical properties of the dispersions of Example 3, Control C2 and crystalline Drug 2 alone were determined as Example 1 with the following exceptions. […] Samples were analyzed by HPLC, with absorbance at 297 nm (Hewlett Packard 1100 HPLC, Zorbax SB C18 column, 35% acetonitrile/65% H2O).

[1] = Drug 2, 2000 μg/mL if all of the drug had dissolved

O=C(N[C@@H](Cc1ccccc1)[C@@H](O)C(=O)N1C[C@@H](O)[C@@H](O)C1)c1cc2cc(Cl)ccc2[nH]1 [Crystalline Drug 2, 5-chloro-1H-indole-2-carboxylic acid [(1S)-benzyl-(2R)-hydroxy-3-((3R,4S)-dihydroxy-pyrrolidin-1-yl-)-3-oxypropyl]amide]
AUC90 [1]: 12,800 min*μg/mL
Cmax90 [1]: 149 µg/mL

CCOC(=O)N1c2ccc(C(F)(F)F)cc2C(N(Cc2cc(C(F)(F)F)cc(C(F)(F)F)c2)C(=O)OC)CC1CC (stereo not drawn) [Crystalline Drug 1, 4-[(3,5-bis-trifluoromethyl-benzyl)-methoxycarbonyl-amino]-2-ethyl-6-trifluoromethyl-3,4-dihydro-2H-quinoline-1-carboxylic acid ethyl ester]
AUC90 (Drug 1, area under drug concentration versus time curve in the first ninety minutes): <88 µg·min/mL
Cmax90 (Drug 1, maximum concentration of drug in the first ninety minutes): <1 µg/mL
Drug 1 Concentration (supernatant after centrifugation, time 0 min): 0 µg/mL
Drug 1 AUC (time 0 min): 0 min-μg/ml
Drug 1 AUC (time 4 min): <2 min-μg/ml
Drug 1 Concentration (time 4 min): <1 µg/mL
Drug 1 AUC (time 10 min): <8 min-μg/ml
Drug 1 Concentration (time 10 min): <1 µg/mL
Drug 1 AUC (time 20 min): <18 min-μg/ml
Drug 1 Concentration (time 20 min): <1 µg/mL
Drug 1 AUC (time 40 min): <38 min-μg/ml
Drug 1 Concentration (time 40 min): <1 µg/mL
Drug 1 AUC (time 90 min): <88 min-μg/ml
Drug 1 Concentration (time 90 min): <1 µg/mL
Drug 1 AUC (time 1200 min): <1,200 min-μg/ml
Drug 1 Concentration (time 1200 min): <1 µg/mL

Source: patent publication US6763607B2, “Method for making homogeneous spray-dried solid amorphous drug dispersions utilizing modified spray-drying apparatus” (Pfizer Inc., priority 2002, dated 2004)
